Patent publication US10428066B2, “Imidazo[4,5-C]pyridine and pyrrolo[2,3-C]pyridine derivatives as SSAO inhibitors” (PROXIMAGEN, LLC, priority 2013, dated 2019)

Biological target: purified recombinantly expressed human SSAO (Homo sapiens (Human), UniProt Q16853)
Test: SSAO enzyme inhibition assay (HRP-coupled hydrogen peroxide detection or 14C-benzaldehyde detection, benzylamine substrate)
Format: biochemical
Conditions: human recombinant SSAO, RT
Description: All primary assays were performed at RT. with purified recombinantly expressed human SSAO. Enzyme was prepared essentially as described in Öhman et al. (Protein Expression and Purification 46 (2006) 321-331). In addition, secondary- and selectivity assays were performed using SSAO prepared from various tissues or purified rat recombinant SSAO. The enzyme activity was assayed with benzylamine as substrate by measuring either benzaldehyde production, using ^14C-labeled substrate, or by utilizing the production of hydrogen peroxide in a horseradish peroxidase (HRP) coupled reaction. Briefly, test compounds were dissolved in dimethyl sulfoxide (DMSO) to a concentration of 10 mM. Dose-response measurements were assayed by either creating 1:10 serial dilutions in DMSO to produce a 7 point curve or by making 1:3 serial dilutions in DMSO to produce 11 point curves.
In a horseradish peroxidase (HRP) coupled reaction, hydrogen peroxide oxidation of 10-acetyl-3,7-dihydroxyphenoxazine produced resorufin, which is a highly fluorescent compound (Zhout and Panchuk-Voloshina. Analytical Biochemistry 253 (1997) 169-174; Amplex® Red Hydrogen Peroxide/peroxidase Assay kit, Invitrogen A22188). Enzyme and compounds in 50 mM sodium phosphate, pH 7.4 were set to pre-incubate in flat-bottomed microtiter plates for approximately 15 min before initiating the reaction by addition of a mixture of HRP, benzylamine and Amplex reagent. Benzylamine concentration was fixed at a concentration corresponding to the Michaelis constant, determined using standard procedures. Fluorescence intensity was then measured at several time points during 1-2 h, exciting at 544 nm and reading the emission at 590 nm. For the human SSAO assay final concentrations of the reagents in the assay wells were: SSAO enzyme 1 ug/ml, benzylamine 100 uM, Amplex reagent 20 uM, HRP 0.1 U/mL and varying concentrations of test compound. The inhibition was measured as % decrease of the signal compared to a control without inhibitor (only diluted DMSO). The background signal from a sample containing no SSAO enzyme was subtracted from all data points. Data was fitted to a four parameter logistic model and IC50 values were calculated using the GraphPad Prism 4 or XLfit 4 programs.
SSAO activity was assayed using 14C-labeled benzylamine and analysed by measuring radioactive benzaldehyde. In a white 96-well optiplate (Packard), 20 uL of diluted test compound was pre-incubated at room temperature with 20 uL SSAO enzyme for approximately 15 min with continuous agitation. All dilutions were made with PBS. The reaction was initiated by adding 20 uL of the benzylamine substrate solution containing [7-14C] Benzylamine hydrochloride (CFA589, GE Healthcare). The plate was incubated for 1 h as above after which the reaction was stopped by acidification (10 uL 1M aq HCl). Then 90 uL Micro Scint-E solution (Perkin-Elmer) was added to each well and the plate was continuously mixed for 15 min. Phase separation occurred instantly and activity was read in a Topcount scintillation counter (Perkin-Elmer). In the final reaction well, the human recombinant SSAO concentration was 10 ug/ml. In order to optimize sensitivity, the substrate concentration was decreased as compared to the HRP coupled assay in order to get a higher fraction of radioactive product. In the human SSAO assay, benzylamine concentration was 40 uM (0.2 uCi/mL). Data was analysed as above.

Sequence of purified recombinantly expressed human SSAO (Q16853 29-763): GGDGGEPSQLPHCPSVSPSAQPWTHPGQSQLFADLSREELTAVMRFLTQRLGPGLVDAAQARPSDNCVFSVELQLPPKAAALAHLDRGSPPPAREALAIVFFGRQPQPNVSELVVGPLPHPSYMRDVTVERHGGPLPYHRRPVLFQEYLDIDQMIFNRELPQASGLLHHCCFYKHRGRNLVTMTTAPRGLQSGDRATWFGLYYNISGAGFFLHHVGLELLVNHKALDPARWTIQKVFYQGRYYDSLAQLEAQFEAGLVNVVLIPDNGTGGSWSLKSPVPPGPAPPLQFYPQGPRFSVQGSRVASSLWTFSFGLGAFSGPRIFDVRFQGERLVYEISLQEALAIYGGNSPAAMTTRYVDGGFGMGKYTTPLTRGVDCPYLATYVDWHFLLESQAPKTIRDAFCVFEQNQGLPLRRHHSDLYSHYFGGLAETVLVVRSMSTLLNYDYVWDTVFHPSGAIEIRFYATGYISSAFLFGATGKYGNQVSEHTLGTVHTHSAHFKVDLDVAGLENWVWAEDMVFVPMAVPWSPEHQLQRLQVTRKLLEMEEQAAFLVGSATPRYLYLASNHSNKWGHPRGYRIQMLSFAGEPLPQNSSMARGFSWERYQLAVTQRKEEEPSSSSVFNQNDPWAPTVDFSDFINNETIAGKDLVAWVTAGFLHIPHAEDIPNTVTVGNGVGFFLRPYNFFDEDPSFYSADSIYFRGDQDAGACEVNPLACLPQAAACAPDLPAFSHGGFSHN

IC50 [nM]	SMILES
200 to 1200	NC(=O)NC1CCN(c2ccc(-c3nc4ccncc4n3-c3ccc(Cl)cc3)cn2)CC1 [Example 91, (1-{5-[3-(4-Chlorophenyl)-3H-imidazo[4,5-c]pyridin-2-yl]pyridin-2-yl}piperidin-4-yl)urea; bis(trifluoroacetic acid)]
50 to 200	NC(=O)N1CCN(c2ncc(-c3nc4ccncc4n3-c3ccc(Cl)cc3)o2)CC1 [Example 93, 4-{5-[3-(4-Chlorophenyl)-3H-imidazo[4,5-c]pyridin-2-yl]-1,3-oxazol-2-yl}piperazine-1-carboxamide]
200 to 1200	NC(=O)N1CCCN(c2ccc(-c3nc4ccncc4n3-c3ccc(F)cc3)cn2)CC1 [Example 94, 4-{5-[3-(4-Fluorophenyl)-3H-imidazo[4,5-c]pyridin-2-yl]pyridin-2-yl}-1,4-diazepane-1-carboxamide]
50 to 200	c1ccc(-n2c(-c3cnc(N4CCOCC4)nc3)nc3ccncc32)cc1 [Example 95, 4-(5-{3-Phenyl-3H-imidazo[4,5-c]pyridin-2-yl}pyrimidin-2-yl) morpholine]
50 to 200	c1cc2nc(-c3cnc(N4CCOCC4)nc3)n(-c3ccc(C4CC4)cc3)c2cn1 [Example 96, 4-{5-[3-(4-Cyclopropylphenyl)-3H-imidazo[4,5-c]pyridin-2-yl]pyrimidin-2-yl}morpholine]
200 to 1200	Cc1ccc(-n2c(-c3cnc(N4CCOCC4)cc3C)nc3ccncc32)cc1 [Example 97, 4-{4-Methyl-5-[3-(4-methylphenyl)-3H-imidazo[4,5-c]pyridin-2-yl]pyridin-2-yl}morpholine]
50 to 200	Fc1ccc(-n2c(-c3cnc(N4CCOCC4)c(F)c3)nc3ccncc32)cc1 [Example 98, 4-{3-Fluoro-5-[3-(4-fluorophenyl)-3H-imidazo[4,5-c]pyridin-2-yl]pyridin-2-yl}morpholine]
200 to 1200	Cc1cc(NC2CCOCC2)ncc1-c1nc2ccncc2n1-c1ccc(F)cc1 [Example 100, 5-[3-(4-Fluorophenyl)-3H-imidazo[4,5-c]pyridin-2-yl]-4-methyl-N-(oxan-4-yl)pyridin-2-amine]
50 to 200	Cc1cc(NCC2CC2)ncc1-c1nc2ccncc2n1-c1ccc(F)cc1 [Example 101, N-(Cyclopropylmethyl)-5-[3-(4-fluorophenyl)-3H-imidazo[4,5-c]pyridin-2-yl]-4-methylpyridin-2-amine]
50 to 200	Cc1ccc(-n2c(-c3ccc(N4C[C@@H](C)O[C@@H](C)C4)nc3)nc3ccncc32)cn1 [Example 103, (2R,6S)-2,6-Dimethyl-4-{5-[3-(6-methylpyridin-3-yl)-3H-imidazo[4,5-c]pyridin-2-yl]pyridin-2-yl}morpholine; tris(trifluoroacetic acid)]
200 to 1200	Nc1ccc(-c2nc3ccncc3n2-c2ccc(Cl)cc2F)cn1 [Example 105, 5-[3-(4-Chloro-2-fluorophenyl)-3H-imidazo[4,5-c]pyridin-2-yl]pyridin-2-amine]
50 to 200	CN1CCN(c2ccc(-c3nc4ccncc4n3-c3ccc(F)cc3)cn2)CC1=O [Example 106, 4-{5-[3-(4-Fluorophenyl)-3H-imidazo[4,5-c]pyridin-2-yl]pyridin-2-yl}-1-methylpiperazin-2-one]
200 to 1200	Cc1nc(N2CCOCC2)ccc1-c1nc2ccncc2n1-c1ccc(F)cc1 [Example 108, 4-{5-[3-(4-Fluorophenyl)-3H-imidazo[4,5-c]pyridin-2-yl]-6-methylpyridin-2-yl}morpholine]
200 to 1200	CN(C)c1cc(-c2nc3ccncc3n2-c2ccc(F)cc2)ccn1 [Example 109, 4-[3-(4-Fluorophenyl)-3H-imidazo[4,5-c]pyridin-2-yl]-N,N-dimethylpyridin-2-amine]
200 to 1200	Nc1ccc(-c2nc3ccncc3n2-c2ccc(Cl)cc2)cn1 [Example 110, 5-[3-(4-Chlorophenyl)-3H-imidazo[4,5-c]pyridin-2-yl]pyridin-2-amine]
200 to 1200	Cn1ccc(-c2nc3ccncc3n2-c2ccc(F)cc2)cc1=O [Example 114, 4-[3-(4-Fluorophenyl)-3H-imidazo[4,5-c]pyridin-2-yl]-1-methyl-1,2-dihydropyridin-2-one]
50 to 200	O=c1cc(-c2nc3ccncc3n2-c2ccc(Cl)cc2F)ccn1C1CC1 [Example 116, 4-[3-(4-Chloro-2-fluorophenyl)-3H-imidazo[4,5-c]pyridin-2-yl]-1-cyclopropyl-1,2-dihydropyridin-2-one]
200 to 1200	COCCN(C)c1ncc(-c2nc3ccncc3n2-c2ccc(C)cc2)cn1 [Example 117, N-(2-Methoxyethyl)-N-methyl-5-[3-(4-methylphenyl)-3H-imidazo[4,5-c]pyridin-2-yl]pyrimidin-2-amine]
50 to 200	Cc1ccc(-n2c(-c3cnc(NC4CCOCC4)nc3)nc3ccncc32)cc1 [Example 119, 5-[3-(4-Methylphenyl)-3H-imidazo[4,5-c]pyridin-2-yl]-N-(oxan-4-yl)pyrimidin-2-amine; bis(trifluoroacetic acid)]
200 to 1200	CN1CCN(C(=O)c2ccc(-c3cc4ccncc4n3-c3ccc(Cl)cc3)cc2)CC1 [Example 125, 1-({4-[1-(4-Chlorophenyl)-1H-pyrrolo[2,3-c]pyridin-2-yl]phenyl}carbonyl)-4-methylpiperazine]
50 to 200	Cc1ccc(-n2c(-c3cnc(N4CCOCC4)nc3)cc3ccncc32)cc1 [Example 130, 4-{5-[1-(4-Methylphenyl)-1H-pyrrolo[2,3-c]pyridin-2-yl]pyrimidin-2-yl}morpholine]
50 to 200	CCn1ccc(-c2cc3ccncc3n2-c2ccc(Cl)cc2)cc1=O [Example 144, 4-[1-(4-Chlorophenyl)-1H-pyrrolo[2,3-c]pyridin-2-yl]-1-ethyl-1,2-dihydropyridin-2-one]
50 to 200	O=c1cc(-c2cc3ccncc3n2-c2ccc(Cl)cc2)cn[nH]1 [Example 146, 5-[1-(4-Chlorophenyl)-1H-pyrrolo[2,3-c]pyridin-2-yl]-2,3-dihydropyridazin-3-one]
50 to 200	Clc1ccc(-n2c(-c3cncc(Cl)c3)cc3ccncc32)cc1 [Example 150, 3-Chloro-5-[1-(4-chlorophenyl)-1H-pyrrolo[2,3-c]pyridin-2-yl]pyridine]
50 to 200	Clc1ccc(-n2c(-c3ccc(-n4cccn4)nc3)cc3ccncc32)cc1 [Example 151, 5-[1-(4-Chlorophenyl)-1H-pyrrolo[2,3-c]pyridin-2-yl]-2-(1H-pyrazol-1-yl)pyridine; bis(trifluoroacetic acid)]
